From ChEMBL document CHEMBL1201862, “PubChem BioAssay data set” (2004)
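Five concentrations, 48 hours, 96-well plates. At the GI50, growth is halved.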 Calls of active or inactive are those of the source. Cut-off read from the data, not from the text of the source: active = GI50 up to about 1.1 µM and inactive = higher.

Experiments:
Assay in all cases: NCI anticancer screen, dose series, 48 h
SK-MEL-2 = system: SK-MEL-2
OVCAR-3 = system: OVCAR-3
NCI-H460 = system: NCI-H460
SK-MEL-5 = system: SK-MEL-5
SN12C = system: SN12C
NCI-H522 = system: NCI-H522
SNB-75 = system: SNB-75
HL-60 = system: HL-60
TK-10 = system: TK-10
IGROV-1 = system: IGROV-1
CAKI-1 = system: CAKI-1
HOP-92 = system: HOP-92
SF-295 = system: SF-295
NCI-H226 = system: NCI-H226
SR = system: SR

Measured: GI50

CN1c2ccccc2NC(CC(=O)O)C2CC=CN21 (stereo not given)
inactive: SK-MEL-2 > 100 µM | OVCAR-3 > 100 µM | NCI-H460 > 100 µM | SK-MEL-5 > 100 µM | SN12C > 100 µM | NCI-H522 > 100 µM | SNB-75 > 100 µM | HL-60 > 100 µM | TK-10 > 100 µM | IGROV-1 > 100 µM | CAKI-1 > 100 µM | HOP-92 > 100 µM | SF-295 > 100 µM

N=C(c1ccccc1)N(O)C1CCCCC1
inactive: SK-MEL-2 > 100 µM | NCI-H460 > 100 µM | SK-MEL-5 > 100 µM | NCI-H226 > 100 µM | SN12C > 100 µM | NCI-H522 > 100 µM | SNB-75 81.3 µM | HL-60 > 100 µM | TK-10 > 100 µM | CAKI-1 > 100 µM | HOP-92 > 100 µM | SF-295 > 100 µM | SR > 100 µM

CN1CC2(CCCCC2)C(O)C12C=CCCC2 (stereo not given)
inactive: SK-MEL-2 > 100 µM | OVCAR-3 > 100 µM | SK-MEL-5 > 100 µM | NCI-H226 > 100 µM | SN12C > 100 µM | NCI-H522 > 100 µM | SNB-75 69.5 µM | HL-60 > 100 µM | TK-10 > 100 µM | IGROV-1 > 100 µM | CAKI-1 > 100 µM | SF-295 > 100 µM

Cc1nc(-n2nc(-c3ccccc3)cc2-c2ccccc2)sc1C(/C=C/c1ccc([N+](=O)[O-])cc1)=N/NC(N)=S
inactive: SK-MEL-2 33.9 µM | OVCAR-3 38.2 µM | NCI-H460 60.3 µM | SK-MEL-5 28.8 µM | NCI-H226 22.8 µM | SN12C > 100 µM | SNB-75 20.8 µM | HL-60 4.13 µM | TK-10 > 100 µM | IGROV-1 35.2 µM | CAKI-1 60.3 µM | HOP-92 25.1 µM | SF-295 45.8 µM

Cc1cccc(/C=N/N=C(\N)NO)n1
inactive: SK-MEL-2 50 µM | OVCAR-3 > 100 µM | NCI-H460 26.9 µM | SK-MEL-5 27.5 µM | SN12C > 100 µM | NCI-H522 37.8 µM | SNB-75 20.5 µM | HL-60 32.4 µM | TK-10 > 100 µM | IGROV-1 7.26 µM | CAKI-1 20.8 µM | HOP-92 26.1 µM | SF-295 22.8 µM | SR 42.4 µM

CN(/N=C\c1ccnc2ccccc12)c1ccc([N+](=O)[O-])cc1
inactive: SK-MEL-2 > 100 µM | OVCAR-3 > 100 µM | NCI-H460 5.73 µM | SK-MEL-5 53.8 µM | NCI-H226 > 100 µM | SN12C > 100 µM | SNB-75 > 100 µM | HL-60 37.1 µM | TK-10 > 100 µM | IGROV-1 > 100 µM | CAKI-1 > 100 µM | HOP-92 > 100 µM | SF-295 75.2 µM

O=C(CC(=O)N1N=C(c2ccccc2)C(/N=N/c2ccc(C(=O)O)cc2)C1=O)Nc1ccc(F)cc1 (stereo not given)
inactive: SK-MEL-2 17.9 µM | OVCAR-3 14.3 µM | NCI-H460 28.7 µM | SK-MEL-5 16.7 µM | NCI-H226 6.15 µM | SN12C 38.9 µM | NCI-H522 10.4 µM | SNB-75 1.51 µM | HL-60 22 µM | TK-10 33.1 µM | IGROV-1 22.5 µM | CAKI-1 7.55 µM | HOP-92 50.8 µM | SF-295 36.9 µM

COc1cccc2c1C1(O)C2CCCC12OCCCO2 (stereo not given)
inactive: SK-MEL-2 > 100 µM | OVCAR-3 > 100 µM | NCI-H460 > 100 µM | SK-MEL-5 > 100 µM | NCI-H226 > 100 µM | SN12C > 100 µM | NCI-H522 > 100 µM | SNB-75 > 100 µM | HL-60 > 100 µM | TK-10 > 100 µM | IGROV-1 > 100 µM | CAKI-1 > 100 µM | SF-295 > 100 µM

O=[N+]([O-])C=C1c2ccccc2-c2ccccc21
inactive: SK-MEL-2 21.6 µM | OVCAR-3 15.1 µM | NCI-H460 20.1 µM | NCI-H226 > 10 µM | SN12C 18.9 µM | NCI-H522 3.76 µM | SNB-75 25.4 µM | HL-60 4.01 µM | TK-10 18.3 µM | IGROV-1 > 10 µM | CAKI-1 11.4 µM | SF-295 19 µM | SR 4.65 µM

COC(=O)C1Cc2c(n(C)c3ccccc23)C(CCC(=O)O)N1Cc1ccccc1 (stereo not given)
inactive: SK-MEL-2 > 100 µM | OVCAR-3 21.1 µM | NCI-H460 23.6 µM | SK-MEL-5 27.3 µM | NCI-H226 21.7 µM | SN12C 38.5 µM | NCI-H522 22.7 µM | SNB-75 32.5 µM | HL-60 34.4 µM | TK-10 55.8 µM | IGROV-1 40.6 µM | CAKI-1 37.2 µM | HOP-92 23.6 µM | SF-295 31 µM

O=[N+]([O-])c1nccn1COCCO
inactive: SK-MEL-2 > 100 µM | NCI-H460 > 100 µM | SK-MEL-5 > 100 µM | NCI-H226 > 100 µM | SN12C > 100 µM | NCI-H522 > 100 µM | SNB-75 > 100 µM | HL-60 > 100 µM | TK-10 > 100 µM | CAKI-1 > 100 µM | HOP-92 > 100 µM | SF-295 > 100 µM | SR > 100 µM

O=C(CC1(O)C(=O)Nc2ccccc21)c1ccc(O)cc1 (stereo not given)
inactive: SK-MEL-2 > 100 µM | OVCAR-3 > 100 µM | NCI-H460 > 100 µM | SK-MEL-5 > 100 µM | NCI-H226 > 100 µM | SN12C > 100 µM | SNB-75 69 µM | HL-60 > 100 µM | TK-10 > 100 µM | IGROV-1 > 100 µM | CAKI-1 > 100 µM | HOP-92 > 100 µM | SF-295 > 100 µM | SR > 100 µM

Oc1ncnc2c1nnn2CCCn1nnc2c(O)ncnc21
inactive: SK-MEL-2 > 100 µM | OVCAR-3 > 100 µM | NCI-H460 > 100 µM | SK-MEL-5 > 100 µM | NCI-H226 > 100 µM | SN12C > 100 µM | NCI-H522 > 100 µM | HL-60 > 100 µM | TK-10 > 100 µM | IGROV-1 > 100 µM | CAKI-1 > 100 µM | HOP-92 > 100 µM | SF-295 > 100 µM | SR > 100 µM

COC(=O)c1c(C(=O)OC)c(-c2ccccc2)n(-c2ccccc2)c(=O)c1-c1ccccc1
inactive: OVCAR-3 51.8 µM | NCI-H460 98.6 µM | SK-MEL-5 > 100 µM | NCI-H226 > 100 µM | SN12C > 100 µM | NCI-H522 94.8 µM | SNB-75 27.2 µM | HL-60 > 100 µM | TK-10 > 100 µM | IGROV-1 > 100 µM | CAKI-1 51.2 µM | HOP-92 24.3 µM | SF-295 36.9 µM | SR > 100 µM

COc1ccc(Cc2cc3c(cc2OCC(=O)O)OCO3)cc1
inactive: SK-MEL-2 > 100 µM | OVCAR-3 > 100 µM | NCI-H460 > 100 µM | SK-MEL-5 > 100 µM | SN12C > 100 µM | NCI-H522 > 100 µM | HL-60 > 100 µM | TK-10 > 100 µM | IGROV-1 > 100 µM | CAKI-1 > 100 µM | HOP-92 > 100 µM | SF-295 > 100 µM | SR > 100 µM
